Assay results from patent publication EP0607373B1, “TRISUBSTITUTED PHENYL DERIVATIVES AS SELECTIVE PHOSPHODIESTERASE IV INHIBITORS” (CELLTECH THERAPEUTICS LIMITED, priority 1992, dated 1993).

How the values were obtained:
[1] = system: PDE IV, HL60 cells; test: Isolated enzyme phosphodiesterase assay, PDE IV; format: biochemical; conditions: 0.1µM [3H]-cAMP, 30°C, pH 7.5, read-out: approximate Ki values (Ki PDE IV HL60 at (1µM))
Protocol: The potency and selectivity of the compounds of the invention was determined using a battery of distinct PDE isoenzymes as follows: • i. PDE I, rabbit heart • ii. PDE II, rabbit heart • iii. PDE III, rabbit heart • iv. PDE IV, HL60 cells.
The enzymes were purified to kinetic homogeneity using standard chromatographic techniques.
Phosphodiesterase activity was assayed as follows. The reaction was conducted in 150µl of standard mixture containing (final concentrations): 50mM TES-NaOH buffer (pH 7.5), 10mM MgCl2, 0.1µM [^3H]-cAMP and vehicle or various concentrations of the test compounds. The reaction was initiated by addition of enzyme and conducted at 30°C for between 5 to 30 mins. The reaction was terminated by addition of 50µl 2% trifluoroacetic acid containing [^14C]-5'AMP for determining recovery of the product. An aliquot of the sample was then applied to a column of neutral alumina and the [^3H]-cAMP eluted with 10ml 0.1 TES-NaOH buffer (pH8). The [^3H]-5'-AMP product was eluted with 2ml 2M NaOH into a scintillation vial containing 10ml of scintillation cocktail. Recovery of [^3H]-5'AMP was determined using the [^14C]-5'AMP and all assays were conducted in the linear range of the reaction.

[2] = system: Right atrial and papillary muscles; conditions: reference inhibitors, general statement on these preparations; cited from earlier work

## COc1ccc(NC(=O)c2ccccc2)cc1OC1CCCC1 [Example 1, N-Benzoyl-3-cyclopentyloxy-4-methyloxyaniline]
[1]
  Ki: ~391 nM

## COc1ccc(NC(=O)c2ccccc2[N+](=O)[O-])cc1OC1CCCC1 [Example 3, 3-Cyclopentyloxy-4-methyloxy-N-(2-Nitrobenzoyl)aniline]
[1]
  Ki: ~179 nM

## Cc1[nH]c(=O)c(C#N)cc1-c1ccncc1 [milrinone]
[2]
  direct effects on isolated cardiac muscle (chronotropic, inotropic): positive chronotropic and inotropic effects

## COc1ccc(C2CNC(=O)C2)cc1OC1CCCC1 (stereo not shown) [rolipram]
[2]
  direct effects on isolated cardiac muscle (chronotropic, inotropic): do not have any direct effects
